Several values for one entry are separate records, joined by “and”; a condition that tells them apart may be missing. Equal entries are not always repeated. Entries after “also recorded” stand apart in the source; their conditions may differ.
Assays:
[1] = Single ascending dose (SAD) study in healthy volunteers: pharmacokinetics of d-methadone; conditions: both, human, in vivo
clinical = conditions: both, human, in vivo
[2] = biological target: T1, serotonin transporter (SERT or 5-HT) (Rattus norvegicus, UniProt P31652); test: biochemical
T1 sequence (P31652 whole entry): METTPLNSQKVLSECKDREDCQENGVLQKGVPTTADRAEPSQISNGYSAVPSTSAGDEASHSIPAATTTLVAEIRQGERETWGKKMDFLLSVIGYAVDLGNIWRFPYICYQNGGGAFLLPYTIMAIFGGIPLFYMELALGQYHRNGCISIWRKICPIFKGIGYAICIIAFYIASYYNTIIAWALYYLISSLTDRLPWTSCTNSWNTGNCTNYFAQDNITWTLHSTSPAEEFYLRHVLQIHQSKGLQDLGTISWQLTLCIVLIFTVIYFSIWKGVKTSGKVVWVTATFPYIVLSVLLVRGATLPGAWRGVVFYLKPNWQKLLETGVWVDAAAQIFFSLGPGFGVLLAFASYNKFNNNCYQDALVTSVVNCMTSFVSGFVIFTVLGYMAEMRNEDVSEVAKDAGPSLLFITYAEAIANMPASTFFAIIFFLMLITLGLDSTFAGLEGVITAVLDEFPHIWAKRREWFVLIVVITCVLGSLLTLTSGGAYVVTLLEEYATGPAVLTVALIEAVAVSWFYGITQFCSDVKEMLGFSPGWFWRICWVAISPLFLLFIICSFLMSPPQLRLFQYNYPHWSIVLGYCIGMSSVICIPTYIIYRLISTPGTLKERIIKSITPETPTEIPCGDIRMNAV

[3] = Novelty-suppressed feeding test (NSFT); assay type: in vivo; conditions: rat; 72 hr after single dose; ketamine 10 mg/kg ip, d-methadone 20 mg/kg sc
[4] = Body weight gain in rats (chronic constrictive nerve injury model experiment); assay type: in vivo; conditions: rat
[5] = biological target: T1, serotonin transporter (SERT or 5-HT)
[6] = biological target: T2, norepinephrine transporter (NET) (Rattus norvegicus, UniProt Q63380); test: Norepinephrine uptake assay; assay type: biochemical
T2 construct: tissue Eurofins Cerep; host or cells: rat hypothalamus synaptosomes (own knowledge of the vendor's assay)
T2 sequence (Q63380 1-617): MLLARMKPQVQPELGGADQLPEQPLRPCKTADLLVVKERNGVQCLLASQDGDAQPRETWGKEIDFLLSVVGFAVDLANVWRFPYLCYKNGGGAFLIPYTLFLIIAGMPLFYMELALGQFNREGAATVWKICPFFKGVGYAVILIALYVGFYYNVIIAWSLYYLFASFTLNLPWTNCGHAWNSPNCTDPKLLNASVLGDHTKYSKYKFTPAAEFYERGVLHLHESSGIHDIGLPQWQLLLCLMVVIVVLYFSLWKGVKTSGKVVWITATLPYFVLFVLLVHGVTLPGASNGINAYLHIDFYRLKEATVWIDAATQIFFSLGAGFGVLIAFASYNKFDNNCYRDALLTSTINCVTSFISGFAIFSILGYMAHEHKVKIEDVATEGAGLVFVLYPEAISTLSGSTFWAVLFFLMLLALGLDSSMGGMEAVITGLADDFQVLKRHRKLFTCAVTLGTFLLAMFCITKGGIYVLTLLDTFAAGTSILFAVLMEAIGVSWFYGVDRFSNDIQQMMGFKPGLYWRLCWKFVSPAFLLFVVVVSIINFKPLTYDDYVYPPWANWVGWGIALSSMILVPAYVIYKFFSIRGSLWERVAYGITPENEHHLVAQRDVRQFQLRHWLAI

[7] = Bond-Lader Visual Analog Scale (cognitive and psychotomimetic effects), SAD and MAD studies
[8] = human, in vivo
[9] = Serum glucose (colorimetric kit) in MAD 25 mg subjects; assay type: in vivo, human; conditions: 25 mg per day for 10 days; for Mean serum glucose change vs baseline: six treated subjects; for serum glucose, individual subjects: hydrochloride
[10] = in vivo
BDNF = BDNF levels (ELISA) in MAD study subjects; assay type: in vivo, human; conditions: for BDNF, individual subjects: hydrochloride
[11] = 2-3-5 hours after single dose 5 mg, SAD

## CCC(=O)C(C[C@H](C)N(C)C)(c1ccccc1)c1ccccc1 [d-methadone]
[1]; 60 mg, SAD 60 mg, mean
  Cmax: 404 ng/mL
[1]; 100 mg
  AUC(0-inf): 31100 ng·h/mL
[1]; 100 mg, AUC0-24, SAD 100 mg, mean
  AUC(0-t): 10700 ng·h/mL
[1]; 100 mg, AUC0-last, SAD 100 mg, mean
  AUC(0-t): 29700 ng·h/mL
[1]; 100 mg, SAD 100 mg, mean
  Cmax: 739 ng/mL
[1]; 150 mg
  AUC(0-inf): 32600 ng·h/mL
[1]; 150 mg, AUC0-24, SAD 150 mg, mean
  AUC(0-t): 14600 ng·h/mL
[1]; 150 mg, AUC0-last, SAD 150 mg, mean
  AUC(0-t): 37200 ng·h/mL
[1]; 150 mg, SAD 150 mg, mean
  Cmax: 1060 ng/mL
[1]; 200 mg, AUC0-24, SAD 200 mg, n=1
  AUC(0-t): 20700 ng·h/mL
[1]; 200 mg, AUC0-last, SAD 200 mg, n=1
  AUC(0-t): 67700 ng·h/mL
[1]; 200 mg, SAD 200 mg, n=1
  Cmax: 1530 ng/mL
clinical; 25 mg
  AUC(0-inf): 13000 ng·h/mL
clinical; 25 mg, Tmax
  Tmax: 2.35 h
clinical; 50 mg
  AUC(0-inf): 32000 ng·h/mL
  Cmax: 587 ng/mL
clinical; 75 mg
  AUC(0-inf): 28900 ng·h/mL
  Cmax: 563 ng/mL
[2]
  IC50: 0.12 µM
[3]
  NSFT: latency to eat in a novel open field: significantly decreased
[4]; 10 mg/kg s.c. once daily 15 days
  mean weight gain baseline to day 15: 41 grams
[4]; 20 mg/kg s.c. once daily 15 days
  mean weight gain baseline to day 15: 36 grams
[4]; 40 mg/kg S.C. once daily for 15 days
  Body weight gain vs vehicle-treated animals: lower weight gain
[4]; 40 mg/kg s.c. once daily 15 days
  mean weight gain baseline to day 15: 22 grams
[5]
  inhibition: 91% and 92.7% and 89.3%
[6]
  IC50: 8.2 µM
[6]; 1.0E−05 M
  norepinephrine uptake, % inhibition: 61.6%
[6]; […]
  Inhibition of norepinephrine uptake by NET: significant inhibition
[7]; [11]
  Bond-Lader VAS mean score: I am feeling drowsy (0: Alert, 100: Drowsy): 19.1
  Bond-Lader VAS mean score: I am feeling proficient (0: Incompetent, 100: Proficient): 93.6
  Bond-Lader VAS mean score: I am feeling quick witted (0: Mentally slow, 100: Quick witted): 91.8
[7]; SAD 5 mg single dose, 2-3-5 hours post dose
  Bond-Lader Visual Analog Scale, domains of mental alertness and cognitive functions, vs placebo arm: improved scores
[7]; healthy subjects of SAD and MAD studies
  Cognitive deficits or psychotomimetic effects (Bond-Lader Visual Analog Scale): did not cause clinically significant cognitive deficits or psychotomimetic effects
[8]; both
  Maximum QTcF interval observed: 462 ms
  Model-predicted ΔΔQT effect at geometric mean plasma concentration: 16.0 to 21.0 ms
[8]; male
  QTc, individual prolonged value: 434 ms
[9]; day 10
  Mean serum glucose change vs baseline: −0.08 mmol/I
[9]; day 12
  Mean serum glucose change vs baseline: −0.43 mmol/I
[9]; Day-10
  serum glucose, individual subjects: 3.2 mmol/I and 4.9 mmol/I
[9]; Day-12
  serum glucose, individual subjects: 4.9 mmol/I (3×) and 4.1 mmol/I
[10]; both, human
  TEAE: any event: 5 n (%) [number of events]
  TEAE: dizziness: 1 n (%) [number of events]
[10]
  Tolerability: well tolerated
BDNF; 25 mg a day for ten days
  Subjects with increase in BDNF levels post treatment vs pre-treatment: 6 of 6
BDNF; 25 mg, healthy volunteers
  BDNF serum levels: significantly increases
BDNF; 50 mg and 75 mg doses, not statistically significant against placebo
  BDNF levels after treatment vs pre-treatment: consistently showed an increase
BDNF; Day 2 hr 4, 25 mg a day oral
  BDNF, individual subjects: BDNF 3.603 ng/L; also recorded: BDNF 2.529 ng/L; also recorded: BDNF 2.038 ng/L; also recorded: BDNF 1.862 ng/L; also recorded: BDNF 8.995 ng/L; also recorded: BDNF 2.750 ng/L
BDNF; Day 6 hr 4, 25 mg a day oral
  BDNF, individual subjects: 4.820 ng/mL and 2.920 ng/mL and 2.348 ng/mL and 2.458 ng/mL and 3.790 ng/mL
BDNF; Day 10 hr 4, 25 mg a day oral
  BDNF, individual subjects: 4.004 ng/mL and 10.697 ng/mL and 2.853 ng/mL and 4.347 ng/mL and 5.459 ng/mL and 3.733 ng/mL
BDNF; Pre-Treatment (baseline), MAD 25 mg subjects
  BDNF, individual subjects: 1.143 ng/mL and BDNF 0.612 ng/mL and 0.376 ng/mL and 0.460 ng/mL and 0.497 ng/mL and 1.922 ng/mL
BDNF; baseline, w/o placebo, N 6
  BDNF_T0 Mean: .83100 ng/mL
BDNF; day 2, 25 mg a day, w/o placebo, N 6
  BDNF_D2 Mean: 3.63 ng/mL
BDNF; day 6, 25 mg a day, w/o placebo, N 5
  BDNF_D6 Mean: 3.267 ng/mL
BDNF; day 10, 25 mg a day, w/o placebo, N 6
  BDNF_D10 Mean: 5.182 ng/mL

Reference: US20180214395A1 (priority 2017, published 2018)
